Patent publication US20210138025A1, “CATIONIC PEPTIDES WITH IMMUNOMODULATORY AND/OR ANTI-BIOFILM ACTIVITIES” (priority 2018, published 2021)
Non-standard residues stand in square brackets, D forms with d. No end group written: not given here.

Assays:
[1] = system: Salmonella typhimurium (ATCC 14028); assay: Biofilm inhibition, static microtitre plate assay, crystal violet (Table 17); conditions: BM2 minimal media
[2] = system: S. aureus (methicillin resistant clinical isolate C623); assay: Biofilm inhibition, static microtitre plate assay, crystal violet (Table 17; FIG. 19); conditions: 10% tryptic soy broth with 0.1% glucose
P. aeruginosa (PAO1) = assay: as above; conditions: BM2 minimal media
E. coli O157:H7 = assay: Biofilm inhibition, static microtitre plate assay, crystal violet (Table 17); conditions: BM2 minimal media
PBMCs = assay: Cytotoxicity towards PBMCs, lactate dehydrogenase (LDH) release assay (Tables 6, 7); conditions: SPOT synthesized peptide ~25 μM, PBMCs from 3 human donors; Table 6
[3] = system: planktonic methicillin resistant S. aureus; assay: microbe, parasite or virus in culture; type: cell-based, Staphylococcus aureus; conditions: planktonic methicillin resistant
[4] = system: Staphylococcus epidermidis (Se); type: cell-based
Protocol: (§1) The following strains were assessed vs. Staphylococcus epidermidis (Se), Pseudomonas aeruginosa (Pa), Streptococcus dysgalactiae (Sd), Pasteurella multocida (Pm), Streptococcus agalactiae (Sa), Streptococcus uberis (Su), Streptococcus suis (Ss), Mannheimia haemolytica (Mh), Bordatella bronchiseptica (Bb), Histophilus somnus (Hs), and Staphylococcus pseudintermedius (Sp) (Table 18) for Minimal Inhibitory Concentrations (MIC). Italics=excellent activity (less than or equal to 4 μg/ml).

[5] = system: Pasteurella multocida (Pm); type: cell-based
Protocol: as §1

[6] = system: Streptococcus agalactiae (Sa); type: cell-based
Protocol: as §1

Histophilus somnus (Hs) [7] = type: cell-based
Protocol: as §1

[8] = system: Streptococcus uberis (Su); type: cell-based
Protocol: as §1

[9] = system: Bordatella bronchiseptica (Bb); type: cell-based
Protocol: as §1

Streptococcus suis (Ss) [10] = type: cell-based
Protocol: as §1

[11] = system: Pseudomonas aeruginosa (Pa); type: cell-based
Protocol: as §1

[12] = system: Staphylococcus pseudintermedius (Sp); type: cell-based
Protocol: as §1

[13] = system: Mannheimia haemolytica (Mh); type: cell-based
Protocol: as §1

[14] = system: Streptococcus dysgalactiae (Sd); type: cell-based
Protocol: as §1

S. aureus (Sau) [15] = type: cell-based; conditions: Sau
E. coli (Ec) [16] = type: cell-based; conditions: Ec
[17] = system: Staphylococcus epidermidis (Se); type: cell-based; remark: listed apart in the source
Protocol: (§2) The same strains as in Table 18 were assessed for Minimal Biofilm Inhibitory Concentrations (MBIC) (Table 19). Italics=excellent activity (less than or equal to 4 μg/ml). ND=Not determined. Peptides 3013, 3015 and 3016 inhibited biofilm growth in the largest number of bacterial strains (5, 5 and 6 out of 13 strains, respectively).

[18] = system: Pasteurella multocida (Pm); type: cell-based; remark: listed apart in the source
Protocol: as §2

[19] = system: Streptococcus agalactiae (Sa); type: cell-based; remark: listed apart in the source
Protocol: as §2

Histophilus somnus (Hs) [20] = type: cell-based; remark: listed apart in the source
Protocol: as §2

[21] = system: Streptococcus uberis (Su); type: cell-based; remark: listed apart in the source
Protocol: as §2

[22] = system: Bordatella bronchiseptica (Bb); type: cell-based; remark: listed apart in the source
Protocol: as §2

Streptococcus suis (Ss) [23] = type: cell-based; remark: listed apart in the source
Protocol: as §2

[24] = system: Pseudomonas aeruginosa (Pa); type: cell-based; remark: listed apart in the source
Protocol: as §2

[25] = system: Staphylococcus pseudintermedius (Sp); type: cell-based; remark: listed apart in the source
Protocol: as §2

[26] = system: Mannheimia haemolytica (Mh); type: cell-based; remark: listed apart in the source
Protocol: as §2

[27] = system: Streptococcus dysgalactiae (Sd); type: cell-based; remark: listed apart in the source
Protocol: as §2

E. coli (Ec) [28] = type: cell-based; conditions: Ec; remark: listed apart in the source
Protocol: as §2
(§3) In addition, several peptides expressed preferential activity vs. biofilms (MBIC) cf. planktonic cells (MIC) (Table 20).

S. aureus (Sau) [29] = type: cell-based; conditions: Sau; remark: listed apart in the source
Protocol: as §2, §3

For “KVVWIKVKIKLV ([dK][dV][dV][dW][dI][dK][dV][dK][dI][dK][dL][dV]) [RI-3007]”, the “peptide concentration that inhibited more than 90% of adhered biofilm biomass, S. typhimurium (ATCC 14028)” value [1] was 16 µM, the “peptide concentration that inhibited more than 90% of adhered biofilm biomass, S. aureus (C623)” value [2] was 16 µM and the “peptide concentration that inhibited more than 90% of adhered biofilm biomass, P. aeruginosa (PAO1)” value (P. aeruginosa (PAO1)) was 32 µM. For the same substance, the “peptide concentration that inhibited more than 90% of adhered biofilm biomass, E. coli (O157:H7)” value (E. coli O157:H7) was 16 µM.
For “KRKLVVKLRLWI ([dK][dR][dK][dL][dV][dV][dK][dL][dR][dL][dW][dI]) [RI-3006]”, the “peptide concentration that inhibited more than 90% of adhered biofilm biomass, S. typhimurium (ATCC 14028)” value [1] was 4 µM, the “peptide concentration that inhibited more than 90% of adhered biofilm biomass, S. aureus (C623)” value [2] was 8 µM and the “peptide concentration that inhibited more than 90% of adhered biofilm biomass, P. aeruginosa (PAO1)” value (P. aeruginosa (PAO1)) was 4 µM. The “peptide concentration that inhibited more than 90% of adhered biofilm biomass, E. coli (O157:H7)” value (E. coli O157:H7) was 4 µM.
In the case of “IWLRLKVVLKRK (not fully specified; also: D-amino acid(s), positions not given here) [Peptide D-3006]”, the “peptide concentration that inhibited more than 90% of adhered biofilm biomass, S. typhimurium (ATCC 14028)” value [1] is reported as 2 µM, the “peptide concentration that inhibited more than 90% of adhered biofilm biomass, S. aureus (C623)” value [2] is reported as 4 µM and the “peptide concentration that inhibited more than 90% of adhered biofilm biomass, P. aeruginosa (PAO1)” value (P. aeruginosa (PAO1)) is reported as 2 µM. The “peptide concentration that inhibited more than 90% of adhered biofilm biomass, E. coli (O157:H7)” value (E. coli O157:H7) was 2 µM.
“AVKWLGWILAKK-NH2 [Peptide 3016, AVKWLGWILAKK]” was tested, and the “% Toxicity (LDH Release)” value (PBMCs) was 0.8%, the “MIC (μM) MHB” value [3] was over 64 µM and the “MIC (μM) TSB with 1% Glucose” value [3] was over 64 µM. The “MIC Se” value [4] was over 64 µg/mL, the “MIC Pm” value [5] was over 64 µg/mL and the “MIC Sa” value [6] was 8 µg/mL. The “MIC Hs” value (Histophilus somnus (Hs) [7]) was 16 µg/mL, the “MIC Su” value [8] was 16 µg/mL and the “MIC Bb” value [9] was 64 µg/mL. The “MIC Ss” value (Streptococcus suis (Ss) [10]) was 32 µg/mL, the “MIC Pa” value [11] was over 64 µg/mL and the “MIC Sp” value [12] was 8 µg/mL. For the same substance, the “MIC Mh” value [13] was over 64 µg/mL, the “MIC Sd” value [14] was over 64 µg/mL and the “MIC S. aureus” value (S. aureus (Sau) [15]) was over 64 µg/mL. For the same substance, the “MIC Sau” value (S. aureus (Sau) [15]) was over 64 µg/mL, the “MIC E. coli” value (E. coli (Ec) [16]) was 64 µg/mL and the “MIC Ec” value (E. coli (Ec) [16]) was 64 µg/mL. For the same substance, the MBIC [17] was 4 µg/mL, the MBIC [18] was 8 µg/mL and the MBIC [19] was 64 µg/mL. It also gave an MBIC (Histophilus somnus (Hs) [20]) of 4 µg/mL, an MBIC [21] of 8 µg/mL and an MBIC [22] of 64 µg/mL. The MBIC (Streptococcus suis (Ss) [23]) was 32 µg/mL, the MBIC [24] was 32 µg/mL and the MBIC [25] was 8 µg/mL. It also gave an MBIC [26] of over 64 µg/mL, an MBIC [27] of over 64 µg/mL and an MBIC (E. coli (Ec) [28]) of 32 µg/mL. For the same substance, the “MBIC E. coli” value (E. coli (Ec) [28]) was 32 µg/mL, the MBIC (S. aureus (Sau) [29]) was 4 µg/mL and the “MBIC S. aureus” value (S. aureus (Sau) [29]) was 4 µg/mL.
For “LWQLWLKLKLKG-NH2 [Peptide 3013, LWQLWLKLKLKG]”, the “% Toxicity (LDH Release)” value (PBMCs) was 14.1%, the “MIC (μM) MHB” value [3] was 32 µM and the “MIC (μM) TSB with 1% Glucose” value [3] was over 64 µM. For the same substance, the “MIC Se” value [4] was 2 µg/mL, the “MIC Pm” value [5] was 32 µg/mL and the “MIC Sa” value [6] was 2 µg/mL. The “MIC Hs” value (Histophilus somnus (Hs) [7]) was 2 µg/mL, the “MIC Su” value [8] was 4 µg/mL and the “MIC Bb” value [9] was 16 µg/mL. The “MIC Ss” value (Streptococcus suis (Ss) [10]) was 64 µg/mL, the “MIC Pa” value [11] was over 64 µg/mL and the “MIC Sp” value [12] was under 1 µg/mL. For the same substance, the “MIC Mh” value [13] was over 64 µg/mL, the “MIC Sd” value [14] was 2 µg/mL and the “MIC S. aureus” value (S. aureus (Sau) [15]) was over 64 µg/mL. For the same substance, the “MIC Sau” value (S. aureus (Sau) [15]) was over 64 µg/mL, the “MIC E. coli” value (E. coli (Ec) [16]) was over 64 µg/mL and the “MIC Ec” value (E. coli (Ec) [16]) was over 64 µg/mL. For the same substance, the MBIC [17] was over 64 µg/mL, the MBIC [18] was 2 µg/mL and the MBIC [19] was 32 µg/mL. For the same substance, the MBIC (Histophilus somnus (Hs) [20]) was 4 µg/mL, the MBIC [21] was 8 µg/mL and the MBIC [22] was over 64 µg/mL. For the same substance, the MBIC (Streptococcus suis (Ss) [23]) was 16 µg/mL, the MBIC [24] was over 64 µg/mL and the MBIC [25] was 1 µg/mL. For the same substance, the MBIC [26] was over 64 µg/mL, the MBIC [27] was 2 µg/mL and the MBIC (E. coli (Ec) [28]) was over 64 µg/mL. The “MBIC E. coli” value (E. coli (Ec) [28]) was over 64 µg/mL, the MBIC (S. aureus (Sau) [29]) was 32 µg/mL and the “MBIC S. aureus” value (S. aureus (Sau) [29]) was 32 µg/mL.
In the case of “RRWIRVAVILRV ([dR][dR][dW][dI][dR][dV][dA][dV][dI][dL][dR][dV]) [RI-1018, reference compound]”, the “peptide concentration that inhibited more than 90% of adhered biofilm biomass, S. typhimurium (ATCC 14028)” value [1] is reported as 2 µM, the “peptide concentration that inhibited more than 90% of adhered biofilm biomass, S. aureus (C623)” value [2] is reported as 8 µM and the “peptide concentration that inhibited more than 90% of adhered biofilm biomass, P. aeruginosa (PAO1)” value (P. aeruginosa (PAO1)) is reported as 4 µM. The “peptide concentration that inhibited more than 90% of adhered biofilm biomass, E. coli (O157:H7)” value (E. coli O157:H7) was 1 µM.
“VLKIKVKIWVVK (not fully specified; also: D-amino acid(s), positions not given here) [Peptide D-3007]” was tested, and the “peptide concentration that inhibited more than 90% of adhered biofilm biomass, S. typhimurium (ATCC 14028)” value [1] was 4 µM, the “peptide concentration that inhibited more than 90% of adhered biofilm biomass, S. aureus (C623)” value [2] was 8 µM and the “peptide concentration that inhibited more than 90% of adhered biofilm biomass, P. aeruginosa (PAO1)” value (P. aeruginosa (PAO1)) was 8 µM. For the same substance, the “peptide concentration that inhibited more than 90% of adhered biofilm biomass, E. coli (O157:H7)” value (E. coli O157:H7) was 4 µM.
